Data reported in article PMC8375990, “The flavin monooxygenase Bs3 triggers cell death in plants, impairs growth in yeast and produces H2O2 in vitro” (PLoS ONE, 2021).

Assays:
Bs3 [1] = molecular target: T1, Bs3 (Capsicum annuum, UniProt A8TVP6); assay: UV-vis spectrum of purified protein; assay type: binding; conditions: FAD added to lysis buffer; co-purified
T1 construct: gene T459_32270; Gateway recombination site and the two N-terminal methionines deleted
T1 sequence (A8TVP6 3-342): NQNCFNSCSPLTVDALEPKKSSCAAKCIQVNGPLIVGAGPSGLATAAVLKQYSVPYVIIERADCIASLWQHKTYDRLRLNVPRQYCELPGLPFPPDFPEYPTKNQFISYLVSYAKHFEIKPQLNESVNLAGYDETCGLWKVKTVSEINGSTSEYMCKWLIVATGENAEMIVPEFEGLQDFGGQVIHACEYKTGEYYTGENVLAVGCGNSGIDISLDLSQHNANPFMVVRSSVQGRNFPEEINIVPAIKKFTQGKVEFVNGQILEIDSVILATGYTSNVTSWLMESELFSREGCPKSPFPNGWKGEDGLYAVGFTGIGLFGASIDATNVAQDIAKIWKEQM

Bs3 [2] = molecular target: T2, Bs3 (Capsicum annuum, UniProt A8TVP6, S211A); assay: UV-vis spectrum of purified protein; assay type: binding; conditions: FAD added to lysis buffer; co-purified
T2 construct: gene T459_32270; Gateway recombination site and the two N-terminal methionines deleted
T2 sequence (A8TVP6 entry or part of it S211A): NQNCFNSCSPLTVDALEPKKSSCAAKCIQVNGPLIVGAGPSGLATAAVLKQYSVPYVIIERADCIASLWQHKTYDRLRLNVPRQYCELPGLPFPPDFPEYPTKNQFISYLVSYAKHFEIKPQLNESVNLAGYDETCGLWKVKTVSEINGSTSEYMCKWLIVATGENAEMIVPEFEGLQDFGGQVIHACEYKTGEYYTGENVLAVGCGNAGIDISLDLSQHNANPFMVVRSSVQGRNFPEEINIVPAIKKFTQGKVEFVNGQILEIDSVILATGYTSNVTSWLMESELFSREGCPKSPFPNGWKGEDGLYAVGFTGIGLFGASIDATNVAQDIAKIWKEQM

Bs3 [3] = molecular target: T1, Bs3; assay: NADPH oxidation, decrease of absorbance at […] nm; assay type: biochemical

Row | inhibition at 50 µM (Bs3 [3]) [%] | SMILES | UV-vis spectrum of purified protein (Bs3 [1]) | UV-vis spectrum of purified protein (Bs3 [2])
1 | – | Cc1cc2nc3c(=O)[nH]c(=O)nc-3n(C[C@H](O)[C@H](O)[C@H](O)COP(=O)(O)OP(=O)(O)OC[C@H]3O[C@@H](n4cnc5c(N)ncnc54)[C@H](O)[C@@H]3O)c2cc1C [FAD] | purified Bs3 and Bs3S211A proteins were bright yellow and the UV-vis spectra show characteristic peaks | purified Bs3 and Bs3S211A proteins were bright yellow and the UV-vis spectra show characteristic peaks
2 | 79 | Cn1cc[nH]c1=S [methimazole] | – | –
3 | 95 | Sc1nnc(-c2ccc(Cl)cc2)[nH]1 [yucasin] | – | –
